From patent US9169247B2, “Tetrahydro-beta-carboline derivatives, synthesis and use thereof” (Southern Research Institute, priority 2009, dated 2015) come the findings set out here.

Read-outs that look alike come from different tables or passages of the source.

Data set [1] concerns human MDA-MB-231 breast tumor cells. In words: Growth assay (Cell Titer Glo). Format: cell-based. To be noted: for inhibition at 10 µM / % Growth Inhibition at 10 μM: mean +/− spread. As for the experimental part:
(§1) All human tumor cell lines were obtained from ATCC and grown under standard cell culture conditions at 37° C. in a humidified atmosphere with 5% CO2. Cells were grown in RPMI 1640 supplemented with 5% fetal bovine serum 2 mM glutamine, 100 units/ml penicillin, 100 units/ml streptomycin, and 0.25 μg/ml amphotericin. Cells were harvested at 70 to 90% confluence with trypsin/EDTA and used immediately Cell count and viability was determined by Trypan blue staining followed by hemocytometry. Only cultures displaying >95% cell viability were used for experiments. HMEC were grown according to the specifications from the supplier (Lonzo).
(§2) Tissue culture microtiter 96-well plates were seeded with cells at a density of 5,000 cells/well. The plates were incubated for 18-24 hours prior to any treatment. All test compounds were solubilized in 100% DMSO and diluted with media to obtain a final DMSO concentration of 0.1%. Cell viability was measured 72 hours after treatment by the Cell Titer Glo Assay (Promega), which is a luminescent assay that is an indicator of live cells as a function of metabolic activity and ATP content. The assay was performed according to manufacturer's specifications. Luminescence was measured by a Perkin Elmer Victor® multi-label plate reader.^6
(§3) Dose response curves were analyzed using Prism™ 4 software (GraphPad) to calculate IC50 values using a four parameter logistic equation.
On the technique in general: In ATP-based viability assays light output follows the ATP content of the culture.

In data set [2] the test system is HT-29. The experiment in a line: Growth assay (Cell Titer Glo). The format is cell-based, human. Particulars: HT-29 colon. As for the experimental part:
Compounds 2a-h were tested for tumor cell growth inhibitory activity using the human breast MDA-MB-231 and ZR75-1 tumor cell lines and the colon CACO-2, SW-1116, and HT-29 tumor cell lines.
as §1, §2, §3

The mark [3] stands for this setting: Homo sapiens, MDA-MB-231, MDA-MB-231.
[4] abbreviates: Homo sapiens, MDA-MB-231, MDA-MB-231, Tables 1 and 2, read-out: Growth Inhibition IC50, μM (95% CI).
The mark [5] stands for this setting: Homo sapiens, MDA-MB-231, 72 h, MDA-MB-231 breast, 72 h, Tables 3-5, read-out: IC50 value, μM, growth.
The mark [6] stands for this setting: MDA-MB-231, Tables 1 and 2, read-out: Growth Inhibition IC50, μM (95% CI).
Where [7] appears, read: MDA-MB-231 breast, 72 h, Tables 3-5, read-out: IC50 value, μM, growth.

A word on the melting point: it is the temperature of the solid-liquid transition. `COC(=O)[C@H]1Cc2c([nH]c3ccccc23)[C@@H](c2cc(OC)ccc2OC)N1` [Compound 1e, (1R,3R) Methyl 1-(2,5-dimethoxyphenyl)-2,3,4,9-tetrahydro-1H-β-carboline-3-carboxylate] had a melting point of 102 to 105 °C.

In turn, `COC(=O)[C@H]1Cc2c([nH]c3ccccc23)[C@H](c2cc(OC)ccc2OC)N1` [Compound 1f, (1S,3R) Methyl 1-(2,5-dimethoxyphenyl)-2,3,4,9-tetrahydro-1H-β-carboline-3-carboxylate] gave a melting point of 139 to 142 °C.

Compound `COC(=O)[C@@H]1Cc2c([nH]c3ccccc23)[C@H](c2cc(OC)ccc2OC)N1` [Compound 1g, (1S,3S) Methyl 1-(2,5-dimethoxyphenyl)-2,3,4,9-tetrahydro-1H-β-carboline-3-carboxylate] yielded a melting point of 100 to 102 °C.

`COC(=O)[C@@H]1Cc2c([nH]c3ccccc23)[C@@H](c2cc(OC)ccc2OC)N1` [Compound 1h, (1R,3S) Methyl 1-(2,5-dimethoxyphenyl)-2,3,4,9-tetrahydro-1H-β-carboline-3-carboxylate] displayed a melting point of 138 to 141 °C.

By inhibition is commonly meant the percentage by which the read-out fell short of the control. The low end stands for a response near the control, the high end for a response far below the control. Regarding `COC(=O)[C@H]1Cc2c([nH]c3ccccc23)[C@@H](c2ccc(Cl)cc2Cl)N1` [Compound 1i, (1R,3R) Methyl-1-(2,4-dichlorophenyl)-2,3,4,9-tetrahydro-1H-β-carboline-3-carboxylate], the melting point is 88 to 92 °C. In data set [1] (setting [3]), 10 µM produced 29% inhibition.

The IC50 is the concentration that gives 50% inhibition. In turn, `COC(=O)[C@H]1Cc2c([nH]c3ccccc23)[C@H](c2ccc(Cl)cc2Cl)N1` [Compound 1j, (1S,3R) Methyl 1-(2,4-dichlorophenyl)-2,3,4,9-tetrahydro-1H-β-carboline-3-carboxylate] returned a melting point of 130 to 133 °C. The same compound showed an inhibition at 10 µM in data set [1] (setting [3]) of 78%. In addition, in data set [1] (setting [4]), the concentration for half-maximal inhibition (IC50) was 6.73 µM.

As for `COC(=O)[C@@H]1Cc2c([nH]c3ccccc23)[C@H](c2ccc(Cl)cc2Cl)N1` [Compound 1k, (1S,3S)Methyl 1-(2,4-dichlorophenyl)-2,3,4,9-tetrahydro-1H-β-carboline-3-carboxylate], the melting point lay in the range of 90 to 92 °C. The same compound showed an inhibition at 10 µM in data set [1] (setting [3]) of 50%.

Turning to `COC(=O)[C@@H]1Cc2c([nH]c3ccccc23)[C@@H](c2ccc(Cl)cc2Cl)N1` [Compound 1l, (1R,3S)Methyl 1-(2,4-dichlorophenyl)-2,3,4,9-tetrahydro-1H-β-carboline-3-carboxylate], the melting point fell in the range of 128 to 130 °C. For the same compound, the inhibition at 10 µM in data set [1] (setting [3]) amounted to 28%.

The compound `COC(=O)[C@H]1Cc2c([nH]c3ccccc23)[C@@H](c2ccc(Cl)c(Cl)c2)N1` [Compound 1m, (1R,3R) Methyl-1-(3,4-dichlorophenyl)-2,3,4,9-tetrahydro-1H-β-carboline-3-carboxylate] had a melting point of 90 to 92 °C. In data set [1] (setting [3]), 10 µM produced 43% inhibition.

`COC(=O)[C@H]1Cc2c([nH]c3ccccc23)[C@H](c2ccc(Cl)c(Cl)c2)N1` [Compound 1n, (1S,3R) Methyl-1-(3,4-dichlorophenyl)-2,3,4,9-tetrahydro-1H-β-carboline-3-carboxylate] came in with a melting point of 140 to 143 °C. Further, testing at 10 µM in data set [1] (setting [3]) gave an inhibition of 100%. The IC50 in data set [1] (setting [4]) worked out at 4.62 µM.

As to `COC(=O)[C@@H]1Cc2c([nH]c3ccccc23)[C@H](c2ccc(Cl)c(Cl)c2)N1` [Compound 1o, (1S,3S) Methyl-1-(3,4-dichlorophenyl)-2,3,4,9-tetrahydro-1H-β-carboline-3-carboxylate], the melting point was 88 to 91 °C. The compound further gave an inhibition at 10 µM in data set [1] (setting [3]) of 62%. Also, in data set [1] (setting [4]), the IC50 was found to be 6.98 µM.

Consider `COC(=O)[C@@H]1Cc2c([nH]c3ccccc23)[C@@H](c2ccc(Cl)c(Cl)c2)N1` [Compound 1p, (1R,3S)Methyl-1-(3,4-dichlorophenyl)-2,3,4,9-tetrahydro-1H-β-carboline-3-carboxylate], for which the melting point lay in the range of 139 to 142 °C. The same compound registered an inhibition at 10 µM in data set [1] (setting [3]) of 48%.

In turn, `COC(=O)[C@H]1Cc2c([nH]c3ccccc23)[C@@H](c2c(Cl)cccc2Cl)N1` [Compound 1q, (1R,3R) Methyl 1-(2,6-dichlorophenyl)-2,3,4,9-tetrahydro-1H-β-carboline-3 carboxylate] yielded a melting point of 102 to 105 °C.

For the compound `COC(=O)[C@@H]1Cc2c([nH]c3ccccc23)[C@H](c2c(Cl)cccc2Cl)N1` [Compound 1r, (1S,3S) Methyl 1-(2,6-dichlorophenyl)-2,3,4,9-tetrahydro-1H-β-carboline-3-carboxylate], the melting point lay within 101 to 103 °C. For the same compound, testing at 10 µM in data set [1] (setting [3]) gave an inhibition of 52%.

On to `COC(=O)[C@H]1Cc2c([nH]c3ccccc23)[C@@H](c2ccc(Cl)cc2Cl)N1C(=O)CCl` [Compound 2i, (1R,3R) Methyl 1-(2,4-dichlorophenyl)-2-(2-chloroacetyl)-2,3,4,9-tetrahydro-1H-β-carboline-3-carboxylate], for which the melting point was 215 to 218 °C. Also, the IC50 in data set [1] (setting [5]) was 0.56 µM. For the same compound, the inhibition at 10 µM in data set [1] (setting [3]) turned out to be 98%. In addition, the IC50 in data set [1] (setting [4]) was found to be 0.56 µM.

In turn, `COC(=O)[C@@H]1Cc2c([nH]c3ccccc23)[C@H](c2ccc(Cl)cc2Cl)N1C(=O)CCl` [Compound 2k, (1S,3S) Methyl 1-(2,4dichlorophenyl)-2-(2-chloroacetyl)-2,3,4,9-tetrahydro-1H-β-carboline-3-carboxylate] displayed a melting point of 215 to 218 °C. The IC50 in data set [1] (setting [5]) was 0.38 µM. In data set [1] (setting [3]), this compound had an inhibition at 10 µM of 55%.

Regarding `COC(=O)[C@@H]1Cc2c([nH]c3ccccc23)[C@@H](c2ccc(Cl)cc2Cl)N1C(=O)CCl` [Compound 2l, (1R,3S) Methyl 1-(2,4-dichlorophenyl)-2-(2-chloroacetyl)-2,3,4,9-tetrahydro-1H-β-carboline-3-carboxylate], the melting point was in the range of 109 to 112 °C. Also, the half-maximal inhibitory concentration (IC50) in data set [1] (setting [5]) was 1.24 µM. In data set [1] (setting [3]), this compound registered an inhibition at 10 µM of 98%. Further, the IC50 in data set [1] (setting [4]) turned out to be 1.24 µM.

`COC(=O)[C@H]1Cc2c([nH]c3ccccc23)[C@@H](c2ccc(Cl)c(Cl)c2)N1C(=O)CCl` [Compound 2m, (1R,3R) Methyl 1-(3,4-dichlorophenyl)-2-(2-chloroacetyl)-2,3,4,9-tetrahydro-1H-β-carboline-3-carboxylate] returned a melting point of 283 to 285 °C. Also, the IC50 in data set [1] (setting [5]) is greater than 10 µM.

For `COC(=O)[C@H]1Cc2c([nH]c3ccccc23)[C@H](c2ccc(Cl)c(Cl)c2)N1C(=O)CCl` [Compound 2n, (1S,3R) Methyl 1-(3,4dichlorophenyl)-2-(2-chloroacetyl)-2,3,4,9-tetrahydro-1H-β-carboline-3-carboxylate], the melting point lay within 163 to 165 °C. In data set [2] (Homo sapiens, HT-29, 72 h), this compound came in with an IC50 greater than 10 µM. Further, the IC50 in data set [1] (setting [5]) stood at 1.2 µM. In addition, in data set [1] (setting [3]), testing at 10 µM gave an inhibition of 50%.

For the compound `COC(=O)[C@@H]1Cc2c([nH]c3ccccc23)[C@H](c2ccc(Cl)c(Cl)c2)N1C(=O)CCl` [Compound 2o, (1S,3S) Methyl 1-(3,4-dichlorophenyl)-2-(2-chloroacetyl)-2,3,4,9-tetrahydro-1H-β-carboline-3-carboxylate], the melting point was 283 to 284 °C. Besides, the half-inhibitory concentration (IC50) in data set [1] (setting [5]) was greater than 10 µM. In data set [1] (setting [3]), this compound gave an inhibition at 10 µM of 43%.

In the case of `COC(=O)[C@@H]1Cc2c([nH]c3ccccc23)[C@@H](c2ccc(Cl)c(Cl)c2)N1C(=O)CCl` [Compound 2p, (1R,3S) Methyl 1-(3,4-dichloro-phenyl)-2 (2-chloroacetyl)-2,3,4,9-tetrahydro-1H-β-carboline-3-carboxylate], the melting point lay within 162 to 165 °C. Moreover, the IC50 in data set [2] (Homo sapiens, HT-29, 72 h) is greater than 10 µM. The IC50 in data set [1] (setting [5]) is greater than 10 µM. In data set [1] (setting [3]), this compound displayed an inhibition at 10 µM of 55%.

`COC(=O)C1Cc2c([nH]c3ccccc23)C(c2c(Cl)cccc2Cl)N1C(=O)CCl` [Compound 2q, (1R,3R) Methyl 1-(2,6-dichlorophenyl)-2-(2-chloroacetyl)-2,3,4,9-tetrahydro 1H-β-carboline-3-carboxylate] registered a melting point of 147 to 150 °C. Further, the midpoint of inhibition in data set [2] (Homo sapiens, HT-29, 72 h), the IC50, lay at 1.5 µM. Besides, the “% Growth Inhibition at 10 μM” value in data set [1] (MDA-MB-231) is 99 +/− 0.01%. Also, the IC50 in data set [1] (setting [6]) is 0.05 µM. In data set [1] (setting [7]), the IC50 was determined as 0.04 µM.

Consider `COC(=O)C1Cc2c([nH]c3ccccc23)C(c2c(Cl)cccc2Cl)N1C(=O)CCl` [Compound 2r, (1S,3S) Methyl 1-(2,6-dichlorophenyl)-2-(2-chloroacetyl)-2,3,4,9-tetrahydro-1H-β-carboline-3-carboxyl], for which the melting point lay in the range of 153 to 156 °C. The same compound gave an IC50 in data set [2] (72 h) of 1 µM. Besides, in data set [1] (MDA-MB-231), the “% Growth Inhibition at 10 μM” value is on record as 24 +/− 0.54%. The IC50 in data set [1] (setting [6]) was determined as 0.42 µM. Further, the half-maximal inhibitory concentration (IC50) in data set [1] (setting [7]) was determined as 0.44 µM.
